Laboratory results from US5385894A, “Disubstituted 6-aminoquinazolinones” (Merck & Co., Inc., priority 1994, dated 1995).

System: not listed separately
Assay: log P (Table 1)
Format: physicochemical
Conditions: not given

Structure (SMILES)	logP	log P
CCCc1nc2ccc(N(Cc3ccccn3)C(=O)c3ccccc3)cc2c(=O)n1Cc1ccc(-c2ccccc2-c2nn[nH]n2)cc1 [Example 137]	3.4	
CCc1nc2ccc(N(Cc3ccccc3)C(=O)c3ccccc3)cc2c(=O)n1Cc1ccc(-c2ccccc2-c2nnn[nH]2)cc1 [Example 57]	4.1	
CCCc1nc2ccc(N(CCCC(=O)O)C(=O)c3ccccc3)cc2c(=O)n1Cc1ccc(-c2ccccc2-c2nnn[nH]2)cc1 [Example 105]	2.3	
CCCc1nc2ccc(N(CCOC)C(=O)c3ccncc3)cc2c(=O)n1Cc1ccc(-c2ccccc2-c2nnn[nH]2)cc1 [Example 119]	3	
Cc1nc2ccc(N(Cc3ccccc3)C(=O)c3ccncc3)cc2c(=O)n1Cc1ccc(-c2ccccc2-c2nnn[nH]2)cc1 [Example 107]	2.9	
CCCc1nc2ccc(N(Cc3ccccc3)C(=O)c3ccncc3)cc2c(=O)n1Cc1ccc(-c2ccccc2-c2nn[nH]n2)cc1 [Example 139]	3.7	
CCCc1nc2ccc(N(Cc3ccccc3)C(=O)c3ccccc3Oc3ccccc3)cc2c(=O)n1Cc1ccc(-c2ccccc2-c2nn[nH]n2)cc1 [Example 178]	4.2	
CCCc1nc2ccc(N(Cc3ccccc3)C(=O)c3ccc(C(=O)O)cc3)cc2c(=O)n1Cc1ccc(-c2ccccc2-c2nn[nH]n2)cc1 [Example 180]	2.9	
CCCCCN(C(=O)c1ccc(Cl)cc1)c1ccc2nc(COC)n(Cc3ccc(-c4ccccc4-c4nnn[nH]4)cc3)c(=O)c2c1 [Example 121]	4.6	
CCCCCN(C(=O)c1ccccc1)c1ccc2nc(CCC)n(Cc3ccc(-c4ccccc4-c4nn[nH]n4)cc3)c(=O)c2c1 [Example 33, 2-propyl-6-(N-benzoyl-N-pentyl)-amino-3[(2'-(tetrazol-5-yl)biphen-4-yl)methyl]quinazolin-4(3H)-one]	5.1	
CCCCCN(C(=O)c1ccccc1)c1ccc2nc(CCC)n(Cc3ccc(-c4ccccc4S(=O)(=O)NC(=O)C4CC4)cc3)c(=O)c2c1 [Example 73]	5.3	
CCCc1nc2ccc(N(CCC)C(=O)c3ccc(OCc4ccccc4)cc3)cc2c(=O)n1Cc1ccc(-c2ccccc2-c2nnn[nH]2)cc1 [Example 129]	5.5	
Cc1nc2ccc(N(Cc3ccccc3Cl)C(=O)c3ccncc3)cc2c(=O)n1Cc1ccc(-c2ccccc2-c2nnn[nH]2)cc1 [Example 110]	3.1	
CCCc1nc2ccc(N(Cc3ccccn3)C(=O)c3ccncc3)cc2c(=O)n1Cc1ccc(-c2ccccc2-c2nn[nH]n2)cc1 [Example 145]	2.7	
CCCc1nc2ccc(N(Cc3ccncc3)C(=O)OCCOC)cc2c(=O)n1Cc1ccc(-c2ccccc2-c2nn[nH]n2)cc1 [Example 160]	2.7	
CCCCN(C(=O)c1ccc(F)cc1)c1ccc2nc(CCC)n(Cc3ccc(-c4ccccc4-c4nn[nH]n4)cc3)c(=O)c2c1 [Example 44]	4.7	
Cc1nc2ccc(N(Cc3ccccc3Cl)C(=O)c3ccccc3)cc2c(=O)n1Cc1ccc(-c2ccccc2-c2nn[nH]n2)cc1 [Example 106]	3.8	
CCCc1nc2ccc(N(Cc3ccc(C(=O)OC)cc3)C(=O)c3ccccc3)cc2c(=O)n1Cc1ccc(-c2ccccc2-c2nn[nH]n2)cc1 [Example 183]	4.4	
CCc1nc2ccc(N(Cc3ccccc3)C(=O)c3ccncc3)cc2c(=O)n1Cc1ccc(-c2ccccc2-c2nn[nH]n2)cc1 [Example 75]		3.4
CCCc1nc2ccc(N(C)C(=O)c3cccs3)cc2c(=O)n1Cc1ccc(-c2ccccc2-c2nnn[nH]2)cc1 [Example 114]	3.4	

System: male Sprague-Dawley rats
Assay: not given
Conditions: rat; cited from earlier work

Structure (SMILES)	activity in CER assay
CN1C(=O)CN=C(c2ccccc2)c2cc(Cl)ccc21 [Diazepam]	active

System: rats pretreated with scopolamine
Assay: not given
Conditions: cited from earlier work

Structure (SMILES)	activity in rat passive avoidance assay
CNC(=O)Oc1ccc2c(c1)[C@]1(C)CCN(C)[C@@H]1N2C [physostigmine]	active
